The source of these data is US9266872B2, “2-hydroxyarylamide derivative or pharmaceutically acceptable salt thereof, preparation method thereof, and pharmaceutical composition for preventing or treating cancer containing same as active ingredient” (KOREA RESEARCH INSTITUTE OF BIOSCIENCE AND BIOTECHNOLOGY, priority 2011, dated 2016).

For the assay, the target named is T1, TMPRSS4 serine protease (Homo sapiens, UniProt Q9NRS4).
T1 construct: TMPRSS4 serine protease domain (205th Val˜437th Leu) was cloned in pET21b/NdeI-XhoI; inferred from pET21b XhoI cloning and Ni-NTA purification) (C); made in house; host or cells: E. coli BL21 (DE3)
The assay is described as follows: Inhibitory effect on TMPRSS4 serine protease activity using peptide substrate. Type of assay: biochemical. The settings on record: kallikrein peptide substrate 100 μM, DMSO negative control; for inhibition at 30 µM: read-out: Intracellular protease activity Inhibition % 30 uM; for inhibition at 100 µM: read-out: Intracellular protease activity Inhibition % 100 uM; for inhibition at 10 µM / Intracellular protease activity Inhibition % 10 uM: 10 uM compound; for inhibition at 10 µM: read-out: Intracellular protease activity Inhibition % 10 uM. How it is done:
TMPRSS4 serine protease domain (205th Val˜437th Leu) was cloned in pET21b/NdeI-XhoI, which was introduced in E. coli BL21 (DE3). At this time, FlagX2-enterokinase cleavage site ([…]; total 15 amino acids) was inserted in N-terminal of TMPRSS4 serine protease domain as shown in FIG. 1. The forward and reverse primers for PCR used for the cloning were presented by SEQ. ID. NO: 1 and NO: 2.
The cells were cultured in 10 ml of LB containing ampicillin at 37° C. overnight. IL of LB+ampicillin was added thereto, followed by further culture until OD reached 0.6˜0.8. 0.1 mM IPTG was added thereto, followed by further culture for 16 hours. Cell pellet was obtained, purified by Ni-NTA (Qiagen), and dialyzed. TMPRSS4 serine protease (pro-form) labeled with 2 mg of 2Xflag-enterokinase cleavage site was conjugated to Ni-NTA resin (4°, overnight). Enterokinase (NEB) was treated thereto at the concentration of 0.0002%/w/w at room temperature for 5 hours. The sample was washed, eluted with 50 mM imidazole in 20 mM of sodium phosphate buffer, and then dialyzed.
The protein activity was evaluated by measuring fluorescence shown during hydrolysis of the peptide. […] Reaction was induced after adding 100 μM of the peptide substrate into reaction buffer (50 mM Tris-HCl (pH 8.0), 10 mM CaCl2, 1 μM ZnCl2). Then, fluorescence was measured at 5 minutes interval (excitation 385 nm, emission 455 nm).
Then, fluorescence (excitation 385 nm/emission 455 nm) was measured at 5 minutes interval for 150 minutes. […] Dimethylsulfoxide (DMSO) was used as the negative control.

T1 sequence (Q9NRS4 205-437): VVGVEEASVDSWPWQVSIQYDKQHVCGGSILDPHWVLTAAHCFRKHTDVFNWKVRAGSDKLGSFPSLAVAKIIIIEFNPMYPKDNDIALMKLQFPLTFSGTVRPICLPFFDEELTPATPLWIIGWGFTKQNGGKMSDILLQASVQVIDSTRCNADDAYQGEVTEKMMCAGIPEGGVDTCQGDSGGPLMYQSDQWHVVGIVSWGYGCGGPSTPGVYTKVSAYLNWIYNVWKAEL

By inhibition is commonly meant the change of the read-out against control, counted positive when it falls. As for `O=C(Nc1ccc(Cl)nc1)c1cc(Cl)ccc1O` [Example 45, 5-chloro-N-(6-chloropyridine-3-yl)-2-hydroxybenzamide], under “30 uM compound”, the inhibition at 30 µM came out at 6%. The inhibition at 100 µM (100 uM compound) amounted to 39%.
For `O=C(Nc1ncc(C(F)(F)F)cc1Cl)c1cc(Cl)ccc1O` [Example 46, 5-chloro-N-(3-chloro-5-(trifluoromethyl)pyridine-2-yl)-2-hydroxybenzamide], in that order: 0% and 0%.
Regarding `O=C(Nc1ccnc(Cl)c1)c1cc(Cl)ccc1O` [Example 47, 5-chloro-N-(2-chloropyridine-4-yl)-2-hydroxybenzamide], the inhibition at 30 µM (30 uM compound) came out at 35%. Moreover, the inhibition at 100 µM (100 uM compound) came out at 21%.
The like results for `Cc1cc(C)nc(NC(=O)c2cc(Cl)ccc2O)n1` [Example 48, 5-chloro-N-(4,6-dimethylpyrimidine-2-yl)-2-hydroxybenzamide] were, in that order, 0% and 0%.
The like results for `O=C(Nc1ncccn1)c1cc(Cl)ccc1O` [Example 49, 5-chloro-2-hydroxy-N-(pyrimidine-2-yl)benzamide] were, in that order, 0% and 2%.
For `Cc1csc(NC(=O)c2cc(Cl)ccc2O)n1` [Example 50, 5-chloro-2-hydroxy-N-(4-methylthiazole-2-yl)benzamide], in that order: 0% and 67%.
With `O=C(Nc1nccs1)c1cc(Cl)ccc1O` [Example 51, 5-chloro-2-hydroxy-N-(thiazole-2-yl)benzamide], the inhibition at 30 µM (30 uM compound) is 44%. Also, the inhibition at 100 µM (100 uM compound) is 90%.
For `O=C(Nc1nc(C(F)(F)F)cs1)c1cc(Cl)ccc1O` [Example 52, 5-chloro-2-hydroxy-N-(4-(trifluoromethyl)thiazole-2-yl)benzamide], in that order: 61% and 100%.
For the compound `O=C(Nc1cc(C(F)(F)F)cc(C(F)(F)F)c1)c1ccc(Cl)cc1O` [Example 54, N-(3,5-bis(trifluoromethyl)phenyl)-4-chloro-2-hydroxybenzamide], the inhibition at 10 µM was 29%. For the same compound, the inhibition at 30 µM (30 uM compound) was 74%.
For `N#Cc1ccc(O)c(C(=O)Nc2cc(C(F)(F)F)cc(C(F)(F)F)c2)c1` [Example 56, N-(3,5-bis(trifluoromethyl)phenyl)-5-cyano-2-hydroxybenzamide], the inhibition at 10 µM is 15%. The inhibition at 30 µM (30 uM compound) is 53%.
Take `CC(=O)Oc1ccc(Cl)cc1C(=O)Nc1cc(C(F)(F)F)cc(C(F)(F)F)c1` [Example 57, 2-(3,5-bis(trifluoromethyl)phenylcarbamoyl)-4-chlorophenylacetate]: the inhibition at 10 µM worked out at 0%. Besides, the inhibition at 30 µM (30 uM compound) is 4%.
The like results for `O=C(Nc1cc(C(F)(F)F)cc(C(F)(F)F)c1)c1cc(Cl)ccc1OCc1ccccc1` [Example 58, 2-benzyloxy-N-(3,5-bis-trifluoromethyl-phenyl)-5-chlorobenzamide] were, in that order, 0% and 6%.
Consider `O=C(Nc1ccccc1)c1cc(Cl)ccc1O` [Example 59, 5-chloro-2-hydroxy-N-phenylbenzamide], for which, for the setting “30 uM compound”, the inhibition at 30 µM is 13%. For the same compound, the inhibition at 100 µM (100 uM compound) amounted to 75%.
The like results for `Cc1cc(C)cc(NC(=O)c2cc(Cl)ccc2O)c1` [Example 60, 5-chloro-N-(3,5-dimethylphenyl)-2-hydroxybenzamide] were, in that order, 44% and 56%.
On to `O=C(Nc1cc(Cl)cc(Cl)c1)c1cc(Cl)ccc1O` [Example 61, 5-chloro-N-(3,5-dichlorophenyl)-2-hydroxybenzamide], for which the inhibition at 10 µM amounted to 15%. Besides, the inhibition at 30 µM (30 uM compound) stood at 58%.
Turning to `O=C(Nc1ccc(C(F)(F)F)c(C(F)(F)F)c1)c1cc(Cl)ccc1O` [Example 62, N-(3,4-bis(trifluoromethyl)phenyl)-5-chloro-2-hydroxybenzamide], the inhibition at 10 µM was 37%. Further, under “30 uM compound”, the inhibition at 30 µM came out at 59%.
Take `O=C(Nc1ccc(Br)c(C(F)(F)F)c1)c1cc(Cl)ccc1O` [Example 63, N-(4-bromo-3-(trifluoromethyl)phenyl)-5-chloro-2-hydroxybenzamide]: the “Intracellular protease activity Inhibition % 10 uM” value was 30%. Further, the “Intracellular protease activity Inhibition % 30 uM” value (30 uM compound) was 46%. Also, the “Intracellular protease activity Inhibition % 100 uM” value (100 uM compound) worked out at 98%.
Take `O=C(Nc1cc(C(F)(F)F)ccc1F)c1cc(Cl)ccc1O` [Example 64, 5-chloro-N-(2-fluoro-5-(trifluoromethyl)phenyl)-2-hydroxybenzamide]: the “Intracellular protease activity Inhibition % 10 uM” value came out at 67%. Moreover, the inhibition at 100 µM (100 uM compound) is 100%.
For the compound `O=C(Nc1cc(Cl)c(Cl)c(Cl)c1)c1cc(Cl)ccc1O` [Example 66, 5-chloro-2-hydroxy-N-(3,4,5-trichloro-phenyl)benzamide], the inhibition at 10 µM stood at 6%. In addition, the inhibition at 30 µM (30 uM compound) came out at 23%.
The like results for `O=C(Nc1cc(C(F)(F)F)cc(C(F)(F)F)c1)c1cc(Cl)cnc1O` [Example 67, N-(3,5-bis(trifluoromethyl)phenyl)-5-chloro-2-hydroxynicotineamide] were, in that order, 0% and 19%.
The like results for `O=C(Nc1cc(C(F)(F)F)cc(C(F)(F)F)c1)c1cnc2ccccc2c1O` [Example 68, N-(3,5-bis(trifluoromethyl)phenyl)-4-hydroxyquinoline-3-carboxamide] were, in that order, 0% and 0%.
Consider `O=C(NC1=NCCS1)c1cc(Cl)ccc1O` [Example 69, 5-chloro-N-(4,5-dihydrothiazol-2-yl)-2-hydroxybenzamide], for which the inhibition at 10 µM was 17%.
With `O=C(Nc1nc2c(s1)CCCC2)c1cc(Cl)ccc1O` [Example 70, 5-chloro-2-hydroxy-N-(4,5,6,7-tetrahydrobenzo[d]thiazol-2-yl)benzamide], the “Intracellular protease activity Inhibition % 10 uM” value was found to be 77%.
For `Cc1cnc(NC(=O)c2cc(Cl)ccc2O)s1` [Example 71, 5-chloro-2-hydroxy-N-(5-methylthiazole-2-yl)benzamide], the “Intracellular protease activity Inhibition % 10 uM” value turned out to be 66% and the inhibition at 10 µM is 51 to 100%.
`Cc1nc(NC(=O)c2cc(Cl)ccc2O)sc1C` [Example 72, 5-chloro-N-(4,5-dimethylthiazol-2-yl)-2-hydroxybenzamide]: the inhibition at 10 µM stood at 16%.
As for `CC1CN(Cc2csc(NC(=O)c3cc(Cl)ccc3O)n2)CC(C)O1` (centres unmarked) [Example 73, 5-chloro-N-(4-((2,6-dimethylmorpholino)methyl)thiazol-2-yl)-2-hydroxybenzamide], the “Intracellular protease activity Inhibition % 10 uM” value was 85%.
For the compound `Cn1ccc(NC(=O)c2cc(Cl)ccc2O)n1` [Example 74, 5-chloro-2-hydroxy-N-(1-methyl-1H-pyrazol-3-yl)benzamide], the inhibition at 10 µM was 14%.
As to `Cc1nc(NC(=O)c2cc(Cl)ccc2O)n[nH]1` [Example 75, 5-chloro-2-hydroxy-N-(5-methyl-1H-1,2,4-triazol-3-yl)benzamide], the “Intracellular protease activity Inhibition % 10 uM” value is 58% and the inhibition at 10 µM lay in the range of 51 to 100%.
`O=C(Nc1nc(-c2cccnc2)cs1)c1cc(Cl)ccc1O` [Example 76, 5-chloro-2-hydroxy-N-(4-(pyridin-3-yl)thiazol-2-yl)benzamide]: the inhibition at 10 µM stood at 30%.
